{
  "source": "ChEMBL document CHEMBL1127985",
  "about": "“Synthesis and biological evaluation of new LTA4 analogs” (Bioorg Med Chem Lett, 1994)",
  "key": {"Cavia porcellus [1]": {"organism": "Cavia porcellus", "assay": "Compound was tested for inhibition of LTD4 induced contraction of guinea pig ileum; call rule not given here", "assay_type": "functional"}, "Cavia porcellus [2]": {"organism": "Cavia porcellus", "assay": "Compound was tested for inhibition of LTD4 induced contraction of guinea pig ileum at a concentration 5E-5 M; NS means No significant effect", "assay_type": "functional"}},
  "data": [
    {"smiles": "CCCCC/C=C\\C\\C=C/C=C/C=C/c1conc1CCC(=O)OC", "values": [
      {"measurement": "IC50", "setting": "Cavia porcellus [1]", "value": 60, "unit": "µM"}
    ]},
    {"smiles": "CCCCCCCCCC/C=C/C=C/c1cc(CCC(=O)OC)no1", "values": [
      {"measurement": "IC50", "setting": "Cavia porcellus [2]", "value": "Not Active"}
    ]},
    {"smiles": "CCCCC/C=C\\C\\C=C/C=C/C=C/c1cc(CCC(=O)OC)no1", "values": [
      {"measurement": "IC50", "setting": "Cavia porcellus [2]", "value": "Not Active"}
    ]},
    {"smiles": "CCCCC/C=C\\C\\C=C/C=C/C=C/C1CC(CCC(=O)OC)=NO1", "note": "(stereo not given)", "values": [
      {"measurement": "IC50", "setting": "Cavia porcellus [1]", "value": 95, "unit": "µM"}
    ]},
    {"smiles": "CCCCC/C=C\\C\\C=C/C=C/C=C/c1conc1CCCC(=O)OC", "values": [
      {"measurement": "IC50", "setting": "Cavia porcellus [1]", "value": 56, "unit": "µM"}
    ]}
  ]
}
